biological target: VHL (co-expressed with Elongin B and Elongin C) (Homo sapiens (Human), UniProt P40337); assay: Measurement of intermolecular interactions using surface plasmon resonance (Biacore T200), Kd value for VHL; format: binding; settings: SPR, immobilized VHL, 25° C.; read-out: Kd
Description: As the device, Biacore T200 (manufactured by GE Healthcare) was used. VHL was obtained by co-expressing Elongin B and Elongin C with a Twin-Strep-tag added to the N-terminus. As the sensor chip, Sensor chip CM5 (manufactured by GE Healthcare) was used. First, Strep-Tactin XT (manufactured by GE Healthcare) was immobilized on the sensor chip by amine coupling. Thereafter, VHL was immobilized using the affinity of Strep-Tactin XT and Twin-Strep-tag, and VHL was further immobilized on the sensor chip by amine coupling.
As the running buffer, a mixed solution of 20 mM HEPES pH 7.5, 150 mM NaCl, 1 mM TCEP, 0.005% Tween 20, and 2% DMSO was used. […] The Contact time and the Dissociation time were determined according to the properties of the compounds. For many compounds, 60 seconds and 120 seconds were respectively used.

VHL (co-expressed with Elongin B and Elongin C), sequence (P40337 whole entry, looked up): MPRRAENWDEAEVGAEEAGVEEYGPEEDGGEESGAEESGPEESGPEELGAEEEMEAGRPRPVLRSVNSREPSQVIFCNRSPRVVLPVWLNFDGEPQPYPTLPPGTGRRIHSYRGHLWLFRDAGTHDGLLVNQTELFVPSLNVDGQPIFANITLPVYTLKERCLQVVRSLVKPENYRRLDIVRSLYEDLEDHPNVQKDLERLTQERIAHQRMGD
VHL (co-expressed with Elongin B and Elongin C), sequence (Q15370 whole entry partner, looked up): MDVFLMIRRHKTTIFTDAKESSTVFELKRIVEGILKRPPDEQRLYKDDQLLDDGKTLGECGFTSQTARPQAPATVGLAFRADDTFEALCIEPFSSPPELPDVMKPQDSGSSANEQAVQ
VHL (co-expressed with Elongin B and Elongin C), sequence (Q15369 whole entry partner, looked up): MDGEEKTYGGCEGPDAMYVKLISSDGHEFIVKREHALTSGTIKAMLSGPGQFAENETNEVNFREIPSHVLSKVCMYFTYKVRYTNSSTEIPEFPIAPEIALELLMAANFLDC

| Compound | Kd |
| --- | --- |
| Cc1cc(-c2cnn(C(C(=O)N3C[C@H](O)C[C@H]3c3ncc[nH]3)C(C)C)c2)on1 (stereo partly drawn) [Example 160, 1-[(2S,4R)-4-hydroxy-2-(1H-imidazol-2-yl)pyrrolidin-1-yl]-3-methyl-2-[4-(3-methylisoxazol-5-yl)pyrazol-1-yl]butan-1-one] | 10 to 50 µM |
| CCCc1nc(C(C(=O)N2C[C@H](O)C[C@H]2c2ncc[nH]2)C(C)C)no1 (stereo partly drawn) [Example 161, 1-[(2S,4R)-4-hydroxy-2-(1H-imidazol-2-yl)pyrrolidin-1-yl]-3-methyl-2-(5-propyl-1,2,4-oxadiazol-3-yl)butan-1-one] | 10 to 50 µM |
| COc1cc(C(C(=O)N2C[C@H](O)C[C@H]2c2nccn2Cc2ccnc(-c3ccc(C(F)(F)F)cc3)c2)C(C)C)on1 (stereo partly drawn) [Example 102, 1-[(2S,4R)-4-hydroxy-2-[1-[[2-[4-(trifluoromethyl)phenyl]-4-pyridyl]methyl]imidazol-2-yl]pyrrolidin-1-yl]-2-(3-methoxyisoxazol-5-yl)-3-methylbutan-1-one] | 10 to 50 µM |
| CC(=O)N[C@H](C(=O)N1C[C@H](O)C[C@H]1c1nc(C(=O)N(C)Cc2ccc(C(F)(F)F)cc2)c[nH]1)C(C)(C)C [Example 22, 2-[(2S,4R)-1-[(2S)-2-acetamido-3,3-dimethylbutanoyl]-4-hydroxypyrrolidin-2-yl]-N-methyl-N-[[4-(trifluoromethyl)phenyl]methyl]-1H-imidazole-4-carboxamide] | 1 to 10 µM |
| COc1cc(C(C(=O)N2C[C@H](O)C[C@H]2c2nc(C(=O)N(C)CC3CCN(Cc4ccccc4F)CC3)c[nH]2)C(C)C)on1 (stereo partly drawn) [Example 155, N-[[1-[(2-fluorophenyl)methyl]-4-piperidyl]methyl]-2-[(2S,4R)-4-hydroxy-1-[2-(3-methoxyisoxazol-5-yl)-3-methylbutanoyl]pyrrolidin-2-yl]-N-methyl-1H-imidazole-4-carboxamide] | 1 to 10 µM |
| CNC(=O)c1ccc(-c2cnc([C@@H]3C[C@@H](O)CN3C(=O)C(c3cc(OC)no3)C(C)C)[nH]2)cc1 (stereo partly drawn) [Example 97, 4-[2-[(2S,4R)-4-hydroxy-1-[2-(3-methoxy-1,2-oxazol-5-yl)-3-methylbutanoyl]pyrrolidin-2-yl]-1H-imidazol-5-yl]-N-methylbenzamide] | 1 to 10 µM |
| CCCc1nnc(C(C(=O)N2C[C@H](O)C[C@H]2c2ncc[nH]2)C(C)C)o1 (stereo partly drawn) [Example 162, 1-[(2S,4R)-4-hydroxy-2-(1H-imidazol-2-yl)pyrrolidin-1-yl]-3-methyl-2-(5-propyl-1,3,4-oxadiazol-2-yl) butan-1-one] | 10 to 50 µM |

Other lines, results leading:

| Kd | Compound |
| --- | --- |
| 1 to 10 µM | COc1cc(C(C(=O)N2C[C@H](O)C[C@H]2c2ncc(Cc3ccc(C(F)(F)F)cc3)[nH]2)C(C)C)on1 (stereo partly drawn) [Example 79, 1-[(2S,4R)-4-hydroxy-2-[5-[[4-(trifluoromethyl)phenyl]methyl]-1H-imidazol-2-yl]pyrrolidin-1-yl]-2-(3-methoxy-1,2-oxazol-5-yl)-3-methylbutan-1-one] |
| 1 to 10 µM | CC(=O)N[C@H](C(=O)N1C[C@H](O)C[C@H]1c1nc(C(=O)N(C)Cc2cccc3ccccc23)c[nH]1)C(C)(C)C [Example 31, 2-[(2S,4R)-1-[(2S)-2-acetamido-3,3-dimethylbutanoyl]-4-hydroxypyrrolidin-2-yl]-N-methyl-N-(naphthalen-1-ylmethyl)-1H-imidazole-4-carboxamide] |
| 1 to 10 µM | CC(=O)N[C@H](C(=O)N1C[C@H](O)C[C@H]1c1ncc(Cc2ccc(Br)cc2)[nH]1)C(C)(C)C [Example 81, N-[(2S)-1-[(2S,4R)-2-[5-[(4-bromophenyl)methyl]-1H-imidazol-2-yl]-4-hydroxypyrrolidin-1-yl]-3,3-dimethyl-1-oxobutan-2-yl]acetamide] |
| 1 to 10 µM | CC(=O)N[C@H](C(=O)N1C[C@H](O)C[C@H]1c1ncc(-c2ccccc2C(F)(F)F)[nH]1)C(C)(C)C [Example 84, N-[(2S)-1-[(2S,4R)-4-hydroxy-2-[5-[2-(trifluoromethyl)phenyl]-1H-imidazol-2-yl]pyrrolidin-1-yl]-3,3-dimethyl-1-oxobutan-2-yl]acetamide] |
| 1 to 10 µM | CC(=O)N[C@H](C(=O)N1C[C@H](O)C[C@H]1c1nc(C(=O)N(C)Cc2cccc(F)c2)c[nH]1)C(C)(C)C [Example 18, 2-[(2S,4R)-1-[(2S)-2-acetamido-3,3-dimethylbutanoyl]-4-hydroxypyrrolidin-2-yl]-N-[(3-fluorophenyl)methyl]-N-methyl-1H-imidazole-4-carboxamide] |
| 1 to 10 µM | COc1ccc(Cc2cnc([C@@H]3C[C@@H](O)CN3C(=O)C(c3cc(OC)no3)C(C)C)[nH]2)cc1 (stereo partly drawn) [Example 62, 1-[(2S,4R)-4-hydroxy-2-[5-[(4-methoxyphenyl)methyl]-1H-imidazol-2-yl]pyrrolidin-1-yl]-2-(3-methoxy-1,2-oxazol-5-yl)-3-methylbutan-1-one] |
| < 1 µM | COc1cc(C(C(=O)N2C[C@H](O)C[C@H]2c2nc(C(=O)N(C)Cc3ccc(-c4ccc(C)nc4)cc3)c[nH]2)C(C)C)on1 (stereo partly drawn) [Example 154, 2-[(2S,4R)-4-hydroxy-1-[2-(3-methoxyisoxazol-5-yl)-3-methylbutanoyl]pyrrolidin-2-yl]-N-methyl-N-[[4-(6-methyl-3-pyridyl)phenyl]methyl]-1H-imidazole-4-carboxamide] |

From patent US20230312542A1, “HYDROXYPYRROLIDINE DERIVATIVE AND MEDICINAL APPLICATION THEREOF” (MITSUBISHI TANABE PHARMA CORPORATION, priority 2020, published 2023)
